Assay [1] deals with zebrafish tremblor (tre) embryos. Briefly: Restoration of coordinated cardiac contractions in tre embryos. Format: in vivo. On the procedure:
(§1) VDAC2 mRNA and morpholino antisense oligos (5′-[…]-3′) (Genetools) (SEQ ID NO: 9) were injected into one-cell stage embryos collected from crosses of tre^tc318 heterozygotes. Cardiac performance was analyzed by visual inspection on 1 dpf. The tre mutant embryos were identified either by observing the fibrillation phenotype at 2-3 dpf or by genotyping as previously described (Langenbacher et al., 2005).
(§2) Chemicals from a synthetic library (Castellano et al., 2007, J Am Chem Soc 129, 5843-5845; Choi et al., 2011, Development 138, 1173-1181; Cruz et al., 2011, Proc Natl Acad Sci USA 108, 6769-6774) and from Biomol International LP were screened for their ability to partially or completely restore persistent heartbeat in tre embryos. 12 embryos collected from crosses of tre^tc318 heterozygotes were raised in the presence of individual compounds at a concentration of 10 μM from 4 hpf (Choi et al., 2011). Cardiac function was analyzed by visual inspection at 1 and 2 dpf. The hearts of tre^tc318 embryos manifest a chaotic movement resembling cardiac fibrillation with intermittent contractions in rare occasion (Ebert et al., 2005; Langenbacher et al., 2005). Compounds that elicit persistent coordinated cardiac contractions were validated on large number of tre mutant embryos and NCX1h morphants (>500 embryos).

In assay [2] the test system is NCX1hMO injected embryos. Briefly: Restoration of coordinated cardiac contractions in NCX1h morpholino embryos. Format: in vivo, zebrafish. As to conditions: for embryos with coordinated contractions: VDAC2^zfn/zfn. On the procedure:
as §1, §2

The subject of assay [3] is HeLa cells. Briefly: Mitochondria Ca2+ uptake assay in HeLa cells. Format: cell-based. The note with it: permeabilized cells, 1 μM efsevin, Rhod2. On the procedure: HeLa cells were transfected with zebrafish VDAC2 using Lipofectamine™ 2000 (Invitrogen). 36 hrs after transfection, cells were loaded with 5 μM Rhod2-AM (Invitrogen), a Ca^2+ indicator preferentially localized in mitochondria, for 1 hour at 15° C. followed by a 30 min de-esterification period at 37° C. Subsequently, cells were permeabilized with 100 μM digitonin for 1 min at room temperature. Fluorescence changes in Rhod2 (ex: 544 nm, em: 590 nm) immediately after the addition of Ca^2+ (final free Ca^2+ concentration is calculated to be approximately 10 μM using WEBMAXC at http://web.stanford.edu/˜cpatton/webmaxcS.htm) were monitored in internal buffer (5 mM K-EGTA, 20 mM HEPES, 100 mM K-aspartate, 40 mM KCl, 1 mM MgCl2, 2 mM maleic acid, 2 mM glutamic acid, 5 mM pyruvic acid, 0.5 mM KH2PO4, 5 mM MgATP, pH adjusted to 7.2 with Trizma base) using a FLUOSTAR plate reader (BMG Labtech).

For assay [4], the system named is wild type zebrafish embryos. Briefly: Cardiac performance (line-scan fractional shortening, heart rate) of wild type embryos. It counts as in vivo. On the procedure:
Movies of GFP-labelled myl7:GFP hearts were taken at 30 frames per second. Line-scan analysis was performed along a line through the atria or the ventricles of these hearts (Nguyen et al., 2009, Drug Discovery Today: Disease Models 5). Fraction of shortening was deduced from the ratio of diastolic and systolic width and heart rate was determined by beats per minute. Cardiac parameters were analyzed in tremblor^tc318 and VDAC2^LA2256 at 2 dpf.

Assay [5] relates to mouse embryonic stem cell-derived cardiomyocytes (mESC-CMs). Briefly: Ca2+ overload-induced irregular Ca2+ transients and contractions in mESC-CMs. It counts as cell-based. The note with it: 10 mM Ca2+ext + 10 μM efsevin. Here is the method: The mouse E14Tg2a ESC and human H9 ESC line were cultured and differentiated as previously described (Blin et al., 2010, J Clin Invest 120, 1125-1139; Arshi et al., 2013, Sci Technol Adv Mater 2013, 025003). At day 10 of differentiation, beating mouse EBs were exposed to external solution containing 10 mM CaCl2 for 10 minutes before DMSO or efsevin (10 μM) treatment. Human EBs were differentiated for 15 days and treated with 5 mM CaCl2) for 10 minutes before DMSO or efsevin (5 μM) treatment. Images of beating EBs were acquired at a rate of 30 frames/sec and analyzed by motion-detection software. For calcium recording, the EBs were loaded with 10 μM fluo-4 AM in culture media for 30 minutes at 37° C. Line-scan analysis was performed and fluorescent signals were acquired by a Zeiss LSM510 confocal microscope.

[6] abbreviates: efsevin treatment, NCX1MO embryos.

“Also recorded” adds a separate entry of the source.

In the case of `CCOC(=O)C1=CCN(S(=O)(=O)c2ccc(C)cc2)C1c1ccccc1` (stereo not drawn) [efsevin], the entries for the “embryos with coordinated cardiac contractions” value in assay [1] (efsevin treated tre embryos) and in assay [2] (setting [6]) were 71.2±8.8% and 76.2±8.7%, respectively. Moreover, the “embryos with coordinated contractions” value amounted to 30.3±6.3% in assay [1] (efsevin treated tre embryos, VDAC1/2 knocked down simultaneously); 46.9±10.7% in assay [1] (efsevin treated tre embryos, morpholino knockdown of VDAC1 (MO^VDAC1)); 45.3±7.4% in assay [1] (efsevin treated tre embryos, morpholino knockdown of VDAC2 (MO^VDAC2)); 54.1±3.6% in assay [2] (setting [6]); 35.7±7.1% in assay [2] (efsevin treatment, VDAC1MO, NCX1MO embryos). Moreover, the “restoration of rhythmic contractions in tremblor embryos” value in assay [1] (tremblor embryos) is listed as “restored rhythmic contractions in the majority of tremblor embryos”. Also, in assay [2] (linker-attached compounds), the “restoration of rhythmic contractions in NCX1hMO injected embryos” value is reported as “retained their ability to restore rhythmic contractions”. Also, the “mitochondrial Ca2+ uptake after addition of Ca2+” value in assay [3] is “increased mitochondrial Ca^2+ uptake”. Further, in assay [4] (efsevin-treated wild-type embryo, 2 dpf), the “cardiac performance of wild-type embryos” value is recorded as “did not affect cardiac performance”. The heart rate in assay [4] (efsevin-treated wild-type embryos) is recorded as 123±3 bpm. Besides, in assay [4] (wild type + efsevin, 48 hpf), the “Atrial FS” value came to 35±2%. Moreover, in assay [4] (wild type + efsevin, 48 hpf), the “Ventricular FS” value is listed as 39±1%. The “rhythmic Ca2+ transients and contractions under Ca2+ overload” value in assay [5] was “restored rhythmic Ca2+ transients and cardiac contractions; also recorded: restores regular Ca^2+ transients”.

These data come from patent US12378193B2, “Anti-arrhythmicity agents” (The Regents of the University of California, priority 2014, dated 2025).
